# Reference: PubChem BioAssay AID2060360 (Molecular Pharmacology Branch, DTP, NCI, 2025)
# System: 282377-053-R-J1-PDC tumor spheroids, viability
# Test: Anticancer human tumor 282377-053-R-J1-PDC patient-derived colon adenocarcinoma cell line growth inhibition [TAK]
# Settings: spheroids with HUVEC and MSC; for IC50: curve of first compound; for viability, T/C: stronger effect = lower value
# Method in brief: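 Drug combinations, each paired with TAK-243 or ipatasertib, were tested on multi-cell spheroids of 60% malignant cells, 25% HUVEC and 15% hMSC. Top concentrations were at or near the clinical Cmax (10 microM if undetermined), decreasing by half-log; viability is given as % test/control.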
# 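Also: spheroids exposed to drugs for seven days before readout.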
smiles,measurement,setting,value
CC(C)(C)c1nc(-c2cccc(NS(=O)(=O)c3c(F)cccc3F)c2F)c(-c2ccnc(N)n2)s1 + CC(C)NCC(C(=O)N1CCN(c2ncnc3c2C(C)CC3O)CC1)c1ccc(Cl)cc1,IC50,second compound 0.3 µM,> 10 µM
same,IC50,second compound 0.949 µM,> 10 µM
same,IC50,second compound 3 µM,> 10 µM
same,IC50,second compound 9.49 µM,> 10 µM
same,IC50,second compound 30 µM,0.437 µM
same,"viability, T/C","second compound 0.3 µM, first compound 0.0316 µM",83.5%
same,"viability, T/C","second compound 0.3 µM, first compound 0.1 µM",81%
same,"viability, T/C","second compound 0.3 µM, first compound 0.316 µM",79.3%
same,"viability, T/C","second compound 0.3 µM, first compound 1 µM",72%
same,"viability, T/C","second compound 0.3 µM, first compound 3.16 µM",71.3%
same,"viability, T/C","second compound 0.3 µM, first compound 10 µM",63.7%
same,"viability, T/C","second compound 0.949 µM, first compound 0.0316 µM",78.4%
same,"viability, T/C","second compound 0.949 µM, first compound 0.1 µM",79.7%
same,"viability, T/C","second compound 0.949 µM, first compound 0.316 µM",71.9%
same,"viability, T/C","second compound 0.949 µM, first compound 1 µM",66.5%
same,"viability, T/C","second compound 0.949 µM, first compound 3.16 µM",59.6%
same,"viability, T/C","second compound 0.949 µM, first compound 10 µM",57.5%
same,"viability, T/C","second compound 3 µM, first compound 0.0316 µM",77.7%
same,"viability, T/C","second compound 3 µM, first compound 0.1 µM",74.8%
same,"viability, T/C","second compound 3 µM, first compound 0.316 µM",69.9%
same,"viability, T/C","second compound 3 µM, first compound 1 µM",58.8%
same,"viability, T/C","second compound 3 µM, first compound 3.16 µM",54.4%
same,"viability, T/C","second compound 3 µM, first compound 10 µM",53.6%
same,"viability, T/C","second compound 9.49 µM, first compound 0.0316 µM",71.6%
same,"viability, T/C","second compound 9.49 µM, first compound 0.1 µM",72.4%
same,"viability, T/C","second compound 9.49 µM, first compound 0.316 µM",65.5%
same,"viability, T/C","second compound 9.49 µM, first compound 1 µM",51.2%
same,"viability, T/C","second compound 9.49 µM, first compound 3.16 µM",47.5%
same,"viability, T/C","second compound 9.49 µM, first compound 10 µM",52.8%
same,"viability, T/C","second compound 30 µM, first compound 0.0316 µM",60%
same,"viability, T/C","second compound 30 µM, first compound 0.1 µM",58.4%
same,"viability, T/C","second compound 30 µM, first compound 0.316 µM",54.6%
same,"viability, T/C","second compound 30 µM, first compound 1 µM",36.1%
same,"viability, T/C","second compound 30 µM, first compound 3.16 µM",35.7%
same,"viability, T/C","second compound 30 µM, first compound 10 µM",42.6%
